Test: Solution stability of 5-azacytidine in the HPLC diluent
Assay type: physicochemical
Details: for Area (%) at RRT 1.00 (5-azacytidine) / Area (%) of peak at RRT 0.63 / Area (%) of peak at RRT 2.01 / Area (%) of peak at RRT 2.05 / Total impurities by % area: HPLC diluent, about 1.65 mg/ml
Procedure: The HPLC measurements were performed using a system equipped with an Inertsil C18 column (ODS-2, 5 microns, 250×4.6 mm (ODS-167)). Other parameters of the system were as follows: • Detection: UV detector operated on 242 nm • Column temperature: 20° C. • Run time: 45 minutes • Injection volume: 10 μl • Flow rate: 1.0 ml/minute • Sample set temperature: 5° C. • Sample concentration: about 1.65 mg/ml • Diluent: Mixture of 30% 10 mM ammonium acetate and 70% THF
Analyses were performed using the following mobile phase • Mobile Phase (Eluent) A: 10 mM ammonium acetate • Mobile Phase (Eluent) B: 60% 10 mM ammonium acetate, 40% MeOH

Nc1ncn([C@@H]2O[C@H](CO)[C@@H](O)[C@H]2O)c(=O)n1 [5-azacytidine, 4-amino-1-β-D-ribofuranosyl-1,3,5-s-triazine-2(1H)-one]
Area (%) at RRT 1.00 (5-azacytidine) (0 hours): 96.72% | Area (%) of peak at RRT 0.63 (0 hours): 1.55% | Area (%) of peak at RRT 2.01 (0 hours): 1.37% | Area (%) of peak at RRT 2.05 (0 hours): 0.24% | Total impurities by % area (0 hours): 3.28% | Area (%) at RRT 1.00 (5-azacytidine) (4 hours): 96.21% | Area (%) of peak at RRT 0.63 (4 hours): 2.04% | Area (%) of peak at RRT 2.01 (4 hours): 1.41% | Area (%) of peak at RRT 2.05 (4 hours): 0.24% | Total impurities by % area (4 hours): 3.79% | Area (%) at RRT 1.00 (5-azacytidine) (5 hours): 96.11% | Area (%) of peak at RRT 0.63 (5 hours): 2.16% | Area (%) of peak at RRT 2.01 (5 hours): 1.37% | Area (%) of peak at RRT 2.05 (5 hours): 0.24% | Total impurities by % area (5 hours): 3.89% | Area (%) at RRT 1.00 (5-azacytidine) (6 hours): 96.00% | Area (%) of peak at RRT 0.63 (6 hours): 2.30% | Area (%) of peak at RRT 2.01 (6 hours): 1.36% | Area (%) of peak at RRT 2.05 (6 hours): 0.24% | Total impurities by % area (6 hours): 4.00% | Area (%) at RRT 1.00 (5-azacytidine) (7 hours): 95.85% | Area (%) of peak at RRT 0.63 (7 hours): 2.43% | Area (%) of peak at RRT 2.01 (7 hours): 1.37% | Area (%) of peak at RRT 2.05 (7 hours): 0.23% | Total impurities by % area (7 hours): 4.15% | Area (%) at RRT 1.00 (5-azacytidine) (8 hours): 95.74% | Area (%) of peak at RRT 0.63 (8 hours): 2.55% | Area (%) of peak at RRT 2.01 (8 hours): 1.37% | Area (%) of peak at RRT 2.05 (8 hours): 0.24% | Total impurities by % area (8 hours): 4.26% | Area (%) at RRT 1.00 (5-azacytidine) (9 hours): 95.63% | Area (%) of peak at RRT 0.63 (9 hours): 2.66% | Area (%) of peak at RRT 2.01 (9 hours): 1.37% | Area (%) of peak at RRT 2.05 (9 hours): 0.24% | Total impurities by % area (9 hours): 4.37% | Area (%) at RRT 1.00 (5-azacytidine) (10 hours): 95.50% | Area (%) of peak at RRT 0.63 (10 hours): 2.77% | Area (%) of peak at RRT 2.01 (10 hours): 1.37% | Area (%) of peak at RRT 2.05 (10 hours): 0.24% | Total impurities by % area (10 hours): 4.50% | Area (%) at RRT 1.00 (5-azacytidine) (11 hours): 95.40% | Area (%) of peak at RRT 0.63 (11 hours): 2.87% | Area (%) of peak at RRT 2.01 (11 hours): 1.37% | Area (%) of peak at RRT 2.05 (11 hours): 0.24% | Total impurities by % area (11 hours): 4.60% | Solution stability in HPLC diluent (dissolved in the HPLC diluent): stable within the average time period needed to complete the HPLC method

Source: patent US20110288042A1, “STABLE HIGHLY PURE AZACITIDINE AND PREPARATION METHODS THEREFOR” (CHEMAGIS LTD., priority 2007, published 2011)
